compound: COC1=CC=C(C=C1)CN2C=CC3=C2C=C(C=C3)C(=O)NO + COc1cc2c(Oc3ccc(NC(=O)C4(C(=O)Nc5ccc(F)cc5)CC4)cc3F)ccnc2cc1OCCCN1CCOCC1 [Foretinib] (partner 0.25 µM); experiment: relative viability (nuclei count vs DMSO), 5 days (fraction); higher = more cells survive; conditions: first compound 8 µM
Procedure, shortened: (§1)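 Values are medians from duplicate plates. Each reflects relative viability, defined as the nuclei count of treated wells over that of vehicle wells. Lung cancer cell lines in 1536-well plates were pin-tool dosed one day after seeding with one drug alone or with a fixed anchor-drug dose plus five library-drug doses (not always all listed) in √10 steps, then fixed, stained and imaged at 4× after 5 days.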

Cell Line	relative viability
NCI-H1734	0.863
NCI-H1437	1.27
ABC-1	1.14
NCI-H596	0.523
HCC-15	1.01
NCI-H460	1.02
EMC-BAC-2	0.922
IA-LM	1.06
NCI-H2009	1.24
COR-L 105	0.212
NCI-H520	0.907
EBC-1	0.113
NCI-H1299	1.05
NCI-H1650	0.766
A549	0.987
SW 900	0.719
COR-L23	0.945
NCI-H1563	0.892
UMC-11	1
NCI-H2228	0.609
NCI-H1703	0.307
ChaGo-K-1	0.869
Calu-6	0.725
SK-MES-1	0.927
NCI-H661	0.927

compound: COC1=CC=C(C=C1)CN2C=CC3=C2C=C(C=C3)C(=O)NO + Cc1cc(Nc2cc(N3CCN(C)CC3)nc(Sc3ccc(NC(=O)C4CC4)cc3)n2)n[nH]1 [Tozasertib] (partner 0.1 µM); experiment: as above; conditions: first compound 0.08 µM
Procedure, shortened: as §1

Cell Line	relative viability
NCI-H2342	0.497
NCI-H1623	0.407
NCI-H1975	0.69
H3255	0.457
NCI-H2023	0.296
NCI-H2405	0.523
SK-LU-1	0.279
NCI-H1437	0.321
NCI-H596	1.05
HCC-15	0.208
NCI-H460	0.309
EMC-BAC-2	0.196
NCI-H2009	0.65
COR-L 105	0.351
NCI-H1648	0.415
NCI-H1650	0.391
SW 900	0.558
COR-L23	0.167
HCC-44	0.803
SK-MES-1	0.816

same assay, conditions: first compound 0.253 µM

Cell Line	relative viability
NCI-H2342	0.701
NCI-H1623	0.411
LU99A	0.254
NCI-H1975	0.852
H3255	0.393
NCI-H2023	0.314
NCI-H2405	0.807
SK-LU-1	0.339
NCI-H1734	0.236
NCI-H1437	0.446
ABC-1	0.221
NCI-H596	0.823
HCC-15	0.515
NCI-H460	0.381
EMC-BAC-2	0.286
NCI-H2009	0.514
COR-L 105	0.355
NCI-H520	0.453
NCI-H1648	0.573
NCI-H1650	0.379
SW 900	0.647
COR-L23	0.197
NCI-H522	0.589
UMC-11	0.204
NCI-H2228	0.229
ChaGo-K-1	0.249
HCC-44	0.909
SK-MES-1	0.895
NCI-H661	0.356

same assay, conditions: first compound 0.8 µM

Cell Line	relative viability
NCI-H2342	0.544
NCI-H1623	0.421
LU99A	0.298
NCI-H1975	0.707
H3255	0.639
NCI-H2023	0.415
NCI-H2405	0.716
SK-LU-1	0.325
NCI-H1734	0.242
NCI-H1437	0.395
ABC-1	0.183
NCI-H596	0.872
HCC-15	0.391
NCI-H460	0.422
EMC-BAC-2	0.287
NCI-H2009	0.741
COR-L 105	0.328
NCI-H520	0.428
NCI-H1648	0.479
NCI-H1650	0.447
SW 900	0.574
COR-L23	0.203
NCI-H522	0.53
UMC-11	0.215
NCI-H2228	0.291
ChaGo-K-1	0.211
HCC-44	0.946
SK-MES-1	0.868
NCI-H661	0.369

same assay, conditions: first compound 2.53 µM

Cell Line	relative viability
NCI-H2342	0.531
NCI-H1623	0.42
LU99A	0.277
NCI-H1975	0.692
H3255	0.497
NCI-H2023	0.389
NCI-H2405	0.689
SK-LU-1	0.337
NCI-H1734	0.251
NCI-H1437	0.42
ABC-1	0.162
NCI-H596	0.938
HCC-15	0.327
NCI-H460	0.411
EMC-BAC-2	0.283
NCI-H2009	0.73
COR-L 105	0.416
NCI-H520	0.449
NCI-H1648	0.399
NCI-H1650	0.416
SW 900	0.612
COR-L23	0.201
NCI-H522	0.613
UMC-11	0.215
NCI-H2228	0.228
ChaGo-K-1	0.214
HCC-44	0.863
SK-MES-1	0.874
NCI-H661	0.328
